In patent US20240228501A1, “IMIDAZOLE-CONTAINING CONDENSED RING DERIVATIVE, PREPARATION METHOD THEREFOR, AND APPLICATION THEREOF IN MEDICINE” (CHANGCHUN GENESCIENCE PHARMACEUTICAL CO., LTD., priority 2021, published 2024):
Read-outs that look alike come from different tables or passages of the source.

Legend:
[1] = molecular target: T1, human NK-3 receptor (Homo sapiens, UniProt P29371); assay: Antagonistic activity on human NK-3 receptor in human NK-3R/HEK293 stably transfected cells (Fluo-4, FLIPR, Neurokinin B as agonist); assay type: cell-based; conditions: human NK-3R/HEK293 cells
T1 construct: expressed in transfected cells; host or cells: HEK293
T1 sequence (P29371 1-465): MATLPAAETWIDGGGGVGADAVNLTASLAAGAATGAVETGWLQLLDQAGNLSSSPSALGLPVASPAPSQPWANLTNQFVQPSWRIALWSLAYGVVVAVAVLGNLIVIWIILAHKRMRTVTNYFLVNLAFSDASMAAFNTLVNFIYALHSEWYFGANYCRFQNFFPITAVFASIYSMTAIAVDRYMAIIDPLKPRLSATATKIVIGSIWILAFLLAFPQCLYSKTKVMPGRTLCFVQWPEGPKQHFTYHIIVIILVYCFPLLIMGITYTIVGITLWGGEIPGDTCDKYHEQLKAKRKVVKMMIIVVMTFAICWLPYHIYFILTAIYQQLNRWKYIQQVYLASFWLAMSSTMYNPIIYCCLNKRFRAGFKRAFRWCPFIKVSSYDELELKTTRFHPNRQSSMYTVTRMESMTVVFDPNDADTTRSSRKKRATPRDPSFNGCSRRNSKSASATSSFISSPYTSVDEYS
In short: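 HEK293 cells stably expressing human NK-3R loaded with Component A dye 2 h at 37° C, then preincubated with serially 3-fold diluted compound 30 min at 25° C. Neurokinin B (2.5 nM, 6× stock) added on FLIPR Tetra to read calcium signal. IC50 from inhibition curves versus reference agonist.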

[2] = Pharmacokinetic test in rats (gavage 3 mg/kg, intravenous 1 mg/kg); assay type: in vivo; conditions: rat, plasma, SD rats; for Cmax: read-out: Blood concentration Cmax; for AUC: read-out: Curve area AUC; for half-life: read-out: Half life T1/2 (converted)
Description: Test Example 2: Pharmacokinetic Test of Compounds of the present invention in Rats
(§1) To study in vivo pharmacokinetic behaviors of the compounds of the present invention in rats, and evaluate pharmacokinetic characteristics thereof.
An appropriate amount of sample was weighed, and ultrasonically prepared into a 0.3 mg/mL suspension for the gavage administration group; and was prepared into a 0.2 mg/mL suspension for the intravenous administration group as per a formula of 5% DMSO+10% Solutol+85% (20% SBE-β-CD).
SD rats were fasted overnight, and then administered by gavage at a dosage of 3 mg/kg and by intravenous injection at a dosage of 1 mg/kg, respectively.
0.1 mL of blood was collected before administration and at 5 min, 15 min, 30 min, 1 h, 2 h, 4 h, 8 h, and 24 h after administration, transferred into heparinized tubes, and centrifuged at 3500 rpm for 10 min to separate the plasma, which was stored at −20° C. 4 h after administration, the animals were resumed for feeding/free access to water.
Contents of the test compounds in plasma of the rats after gavage administration were determined by LC/MS/MS.

[3] = tested on: MDR1; assay: In vitro brain model test: MDR1-MDCKII bidirectional permeability; assay type: in vitro ADME; conditions: dog; for Papp A→B at 2.5 h, 2 μM / Papp B→A at 2.5 h, 2 μM: MDCK-MDR1, pH 7.4, 2 μM, pH7.4; for efflux ratio at 2.5 h, 2 μM: MDCK-MDR1, pH 7.4, B to A / A to B, read-out: Efflux rate
Description: The test product was diluted from dimethyl sulfoxide stock solution to a concentration of 2 μM (dimethyl sulfoxide <1%) with a transfer buffer (HBSS containing 10 mM Hepes, pH7.4); and was applied to apical or basolateral cavities of the cell monolayer. Penetration of the test compound from the direction A to the direction B or from the direction B to the direction A was determined in duplicate. Digoxin was detected at 10 μM in the direction of A-B, or detected in the direction of B-A, while Nadolol and Metoprolol were detected at 2 μM in the direction of A-B in duplicate. The plate was cultivated in a CO2 incubator at 37±1° C. for 2.5 h with 5% CO2 at a saturated humidity without shaking. Further, the efflux rate of each compound was also determined. According to the peak area ratio of analyte/IS, the test product and the control product were quantitatively analyzed by LC-MS/MS.
After the transfer test, the monolayer integrity of cells was determined by a lucifer yellow exclusion assay. Buffer was removed from apical and basolateral cavities, and then 75 μL of 100 μM lucifer yellow and 250 μL of transfer buffer were added into the apical and basolateral cavities, respectively. The culture dish was cultivated at 37° C., 5% CO2, and saturated humidity for 30 min without shaking. After incubation for 30 min, 20 μL of lucifer yellow sample was extracted from the top, and then 60 μL of the transfer buffer was added. Then, 80 μL of lucifer yellow sample was extracted basolaterally. Relative Fluorescence Units (RFU) of lucifer yellow were measured at 425/528 nm (excitation/emission) with an Envision plate reader.

[4] = Pharmacokinetic test in rats: plasma and brain concentration after gavage 3 mg/kg; assay type: in vivo; conditions: rat, oral, SD rats
Description: Test Example 4: Pharmacokinetic Test of Compounds of the Present Invention in Rats
as §1
An appropriate amount of sample was weighed, and ultrasonically prepared into a 0.3 mg/mL suspension for the gavage administration group as per a formula of 5% DMSO+10% Solutol+85% (20% SBE-β-CD).
SD rats were fasted overnight, and then administered by gavage at a dosage of 3 mg/kg respectively.
Blood and cerebrospinal fluid were collected at designed time points after administration, and then brain tissue was collected after cardiac perfusion with normal saline. Plasma was collected by centrifugation within 1 h, and then immediately transferred onto wet ice. Centrifugation conditions: 4-10° C., 8,000 rpm, 6 min. 4 h after administration, the animals were resumed for feeding/free access to water.
The concentrations of corresponding compounds in plasma and cerebrospinal fluid were detected by LC-MS/MS.

[5] = brain/plasma, read-out: B/P ratio

Which IC50 [1] does the source give for `Cc1nsc(-c2nc(-c3cc(F)ncc3F)c3n2CCN(C(=O)c2ccc(F)cc2)[C@@H]3C)n1` [Compound 077, (R)-(1-(2,5-difluoropyridin-4-yl)-8-methyl-3-(3-methyl-1,2,4-thiadiazol-5-yl)-5,6-dihydroimidazo[1,5-a]pyrazin-7 (8H)-yl)(4-fluorophenyl)methanone] here?
Its IC50 is 14.5 nM.

What about the bioavailability ([2]; po, gavage 3 mg/kg vs intravenous 1 mg/kg, read-out: Oral bioavailability F (%)) of the same compound?
Its bioavailability is 58.4%.

And the Cmax ([2]; po, gavage 3 mg/kg)?
Its Cmax is 494 ± 70.6 ng/mL.

And the AUC ([2]; po, gavage 3 mg/kg)?
Its AUC is 9860 ± 3550 ng·h/mL.

And the half-life ([2]; po, gavage 3 mg/kg)?
Its half-life is 11.7 ± 7.72 h.

And the AUC ([2]; intravenous injection 1 mg/kg)?
The AUC was 5170 ± 581 ng·h/mL.

What about the half-life ([2]; intravenous injection 1 mg/kg) of the same compound?
The half-life was 11.8 ± 3.54 h.

And the Papp A→B at 2.5 h, 2 μM [3]?
Its Papp A→B at 2.5 h, 2 μM is 18.3 ×10⁻⁶ cm/s.

And the Papp B→A at 2.5 h, 2 μM [3]?
The Papp B→A at 2.5 h, 2 μM was 14 ×10⁻⁶ cm/s.

And the efflux ratio at 2.5 h, 2 μM [3]?
The efflux ratio at 2.5 h, 2 μM was 0.77.

What about the concentration at 0.5 h ([4]; brain, sampling time 0.5 h, read-out: Brain conc.) of the same compound?
Its concentration at 0.5 h is 2570 ± 178 ng/mL.

And the concentration at 2 h ([4]; brain, read-out: Brain conc.)?
The concentration at 2 h was 1980 ± 232 ng/mL.

And the concentration at 8 h ([4]; brain, sampling time 8 h, read-out: Brain conc.)?
Its concentration at 8 h is 2020 ± 406 ng/mL.

And the Kp at 0.5 h ([4]; brain/plasma, sampling time 0.5 h, read-out: B/P ratio)?
Its Kp at 0.5 h is 3.25.

And the Kp at 2 h [4, 5]?
The Kp at 2 h was 3.66.

And the Kp at 8 h ([4]; brain/plasma, sampling time 8 h, read-out: B/P ratio)?
Its Kp at 8 h is 3.36.

What about the concentration at 0.5 h ([4]; plasma, sampling time 0.5 h, read-out: Plasma conc.) of the same compound?
Its concentration at 0.5 h is 798 ± 79.8 ng/mL.

What about the concentration at 2 h ([4]; plasma, read-out: Plasma conc.) of the same compound?
Its concentration at 2 h is 547 ± 94.5 ng/mL.

And the concentration at 8 h ([4]; plasma, sampling time 8 h, read-out: Plasma conc.)?
Its concentration at 8 h is 598 ± 74.9 ng/mL.

Which IC50 [1] does the source give for `Cc1nsc(-c2nc(N3Cc4ccccc4C3=O)c3n2CCN(C(=O)c2ccc(F)cc2)[C@@H]3C)n1` [Compound 085, (R)-2-(7-(4-fluorobenzoyl)-8-methyl-3-(3-methyl-1,2,4-thiadiazol-5-yl)-5,6,7,8-tetrahydroimidazo[1,5-a]pyrazin-1-yl)isoindolin-1-one] here?
Its IC50 is 12.8 nM.

What about the Papp A→B at 2.5 h, 2 μM [3] of the same compound?
The Papp A→B at 2.5 h, 2 μM was 28 ×10⁻⁶ cm/s.

And the Papp B→A at 2.5 h, 2 μM [3]?
Its Papp B→A at 2.5 h, 2 μM is 18.7 ×10⁻⁶ cm/s.

What about the efflux ratio at 2.5 h, 2 μM [3] of the same compound?
The efflux ratio at 2.5 h, 2 μM was 0.67.

For `Cc1nsc(-c2nnc3n2CCN(C(=O)c2ccc(F)cc2)[C@@H]3C)n1` [Fezolinetant, reference compound], which IC50 [1] is on record?
The IC50 was 734 nM.

And the Cmax ([2]; po, gavage 3 mg/kg)?
Its Cmax is 2180 ng/mL.

And the AUC ([2]; po, gavage 3 mg/kg)?
Its AUC is 10100 ng·h/mL.

And the half-life ([2]; po, gavage 3 mg/kg)?
Its half-life is 3.22 h.

What about the AUC ([2]; intravenous injection 1 mg/kg) of the same compound?
The AUC was 2670 ng·h/mL.

And the half-life ([2]; intravenous injection 1 mg/kg)?
Its half-life is 1.94 h.

And the Papp A→B at 2.5 h, 2 μM [3]?
Its Papp A→B at 2.5 h, 2 μM is 26.2 ×10⁻⁶ cm/s.

What about the Papp B→A at 2.5 h, 2 μM [3] of the same compound?
Its Papp B→A at 2.5 h, 2 μM is 28.4 ×10⁻⁶ cm/s.

What about the concentration at 1 h ([4]; brain, sampling time 1 h, read-out: Brain conc.) of the same compound?
Its concentration at 1 h is 512 ± 88.4 ng/mL.

What about the concentration at 2 h ([4]; brain, read-out: Brain conc.) of the same compound?
The concentration at 2 h was 585 ± 117 ng/mL.

And the concentration at 4 h ([4]; brain, sampling time 4 h, read-out: Brain conc.)?
Its concentration at 4 h is 419 ± 37.1 ng/mL.

And the Kp at 1 h ([4]; brain/plasma, sampling time 1 h, read-out: B/P ratio)?
Its Kp at 1 h is 0.38.

And the Kp at 2 h [4, 5]?
The Kp at 2 h was 0.46.

What about the Kp at 4 h ([4]; brain/plasma, sampling time 4 h, read-out: B/P ratio) of the same compound?
The Kp at 4 h was 0.44.

What about the concentration at 1 h ([4]; plasma, sampling time 1 h, read-out: Plasma conc.) of the same compound?
Its concentration at 1 h is 1330 ± 177 ng/mL.

And the concentration at 2 h ([4]; plasma, read-out: Plasma conc.)?
Its concentration at 2 h is 1280 ± 110 ng/mL.

And the concentration at 4 h ([4]; plasma, sampling time 4 h, read-out: Plasma conc.)?
The concentration at 4 h was 961 ± 21 ng/mL.
